The numbers were not newly measured in patent publication US9687445B2, “Oral film containing opiate enteric-release beads” (LTS Lohmann Therapie-Systeme AG, priority 2012, dated 2017), which cites them from elsewhere.

Consider `C=CCN1CC[C@]23c4c5ccc(O)c4O[C@H]2C(=O)CC[C@@]3(O)[C@H]1C5` [naloxone], for which the pKa result is “about 7.94”.
